For 15 molecules, EC50 results are on record in patent US9765087B2, “Benzimidazole derivatives” (ENANTA PHARMACEUTICALS, INC., priority 2009, dated 2017).

One test has as its system HCV 1a genotype replicon. The test can be described thus: HCV replicon assay (qRT-PCR or luciferase), genotype 1a. It is filed as cell-based. The settings on record: Hepatitis C virus, Table 12, numeric values, read-out: 1a EC50. How it is done: HCV replicon cell lines (kindly provided by R. Bartenschlager) isolated from colonies as described by Lohman et. al. (Lohman et al. (1999) Science 285: 110-113, expressly incorporated by reference in its entirety) and used for all experiments. The HCV replicon has the nucleic acid sequence set forth in EMBL Accession No.: AJ242651, the coding sequence of which is from nucleotides 1801 to 8406.
These cell lines were maintained at 37° C., 5% CO2, 100% relative humidity in DMEM (Cat#11965-084, Invitrogen), with 10% fetal calf serum (“FCS”, Invitrogen), 1% non-essential amino acids (Invitrogen), 1% of Glutamax (Invitrogen), 1% of 100× penicillin/streptomycin (Cat#15140-122, Invitrogen) and Geneticin (Cat#10131-027, Invitrogen) at 0.75 mg/ml or 0.5 mg/ml for 11-7 and Huh-luc/neo-ET cells, respectively.
EC50 values of single agent compounds and combinations were determined by HCV RNA detection using quantitative RT-PCR, according to the manufacturer's instructions, with a TAQMAN® One-Step RT-PCR Master Mix Reagents Kit (Cat#AB 4309169, Applied Biosystems) on an ABI Model 7500 thermocycler. The TaqMan primers used for detecting and quantifying HCV RNA were obtained from Integrated DNA Technologies. HCV RNA was normalized to GAPDH RNA levels in drug-treated cells, which is detected and quantified using the Human GAPDH Endogenous Control Mix (Applied Biosystems, AB 4310884E). Total cellular RNA is purified from 96-well plates using the RNAqueous 96 kit (Ambion, Cat# AM1812). Chemical agent cytotoxicity is evaluated using an MTS assay according to the manufacturer's directions (Promega).
Since clinical drug resistance often develops in viral infections following single agent therapies, there is a need to assess the additive, antagonistic, or synergistic properties of combination therapies. We used the HCV replicon system to assess the potential use of the compound of the present invention or in combination therapies with Interferon alpha, cyclosporine analogs and inhibitors targeting other HCV proteins. The acute effects of a single or combinations of drugs are studied in the “Huh-luc/neo-ET” replicon with each chemical agent titrated in an X or Y direction in a 6 point two-fold dilution curve centered around the EC50 of each drug. Briefly, replicon cells are seeded at 7,000 cells per well in 90 ul DMEM (without phenol red, Invitrogen Cat.#31053-036) per well with 10% FCS, 1% non-essential amino acids, 1% of Glutamax and 1% of 100× penicillin/streptomycin and incubated overnight at 37° C., 5% CO2, 100% relative humidity. 16-20 h after seeding cells, test compounds previously solubilized and titrated in dimethyl sulfoxide (“DMSO”) from each X plate and Y plate are diluted 1:100 in DMEM (without phenol red, Invitrogen Cat.#31053-036) with 10% FCS, 1% non-essential amino acids, 1% of Glutamax and 1% of 100× penicillin/streptomycin and added directly to the 96-well plate containing cells and growth medium at a 1:10 dilution for a final dilution of compound and DMSO of 1:1000 ([…] final concentration). Drug treated cells are incubated at 37° C., 5% CO2, 100% relative humidity for 72 hours before performing a luciferase assay using 100 ul per well BriteLite Plus (Perkin Elmer) according to the manufacturer's instructions. Data analysis utilizes the method published by Prichard and Shipman (Antiviral Research, 1990. 14:181-205). Using this method, the combination data are analyzed for antagonistic, additive, or synergistic combination effects across the entire combination surface created by the diluted compounds in combination.
The compounds of the present invention can be effective against the HCV 1b genotype. It should also be understood that the compounds of the present invention can inhibit multiple genotypes of HCV. In one embodiment compound of the present invention are active against the 1a, 1b, 2a, 2b, 3a, 4a, and 5a genotypes. […] EC50 ranges against HCV 1b and 1a are as follows: A>10 nM; B1-10 nM; C<1 nM.
Regarding `COC(=O)N[C@@H](CC(N)=O)C(=O)N1CCC[C@H]1c1ncc(-c2ccc(C#Cc3ccc4nc([C@@H]5CC6(CC6)CN5C(=O)[C@@H](NC(=O)OC)C(C)C)[nH]c4c3)cc2)[nH]1` [Example 619], the EC50 – broadly, the midpoint of the concentration-response curve – was 0.699 nM. Still for that read-out and setting: the result for `CC[C@H](NC(=O)OC)C(=O)N1CC2(CC2)C[C@H]1c1ncc(-c2ccc(C#Cc3ccc4nc([C@@H]5CC6(CC6)CN5C(=O)[C@H](CC)NC(=O)OC)[nH]c4c3)cc2)[nH]1` [Example 655] reads 0.034 nM; that for `COC(=O)N[C@H](C(=O)N1CC2(CC2)C[C@H]1c1nc2ccc(C#Cc3ccc(-c4cnc([C@@H]5CCCN5C(=O)[C@H](NC(=O)OC)c5cccc(OC)c5)[nH]4)cc3)cc2[nH]1)C(C)C` [Example 597], 0.227 nM.

The test is the same for the next values; noted with them: Hepatitis C virus, Table 12, range class, read-out: 1a EC50 Range.
Regarding `COC(=O)N[C@H](C(=O)N1CC2(CC2)C[C@H]1c1nc2ccc(C#Cc3ccc(-c4cnc([C@@H]5CCCN5C(=O)[C@@H](NC(=O)OC)C5CCCCC5)[nH]4)cc3)cc2[nH]1)C(C)C` [Example 607], the EC50 is less than 1 nM.

Turning to `COC(=O)N[C@@H](CNC(N)=O)C(=O)N1CCC[C@H]1c1ncc(-c2ccc(C#Cc3ccc4nc([C@@H]5CC6(CC6)CN5C(=O)[C@@H](NC(=O)OC)C(C)C)[nH]c4c3)cc2)[nH]1` [Example 550], the 50% effective concentration (EC50) is 1 to 10 nM.

Take `COC(=O)N[C@H](C(=O)N1C[C@H](CF)C[C@H]1c1ncc(-c2ccc(C#Cc3ccc4nc([C@@H]5C[C@@]6(CCCO6)CN5C(=O)[C@@H](NC(=O)OC)C(C)C)[nH]c4c3)cc2)[nH]1)C(C)C` [Example 634]: the 50% effective concentration (EC50) is less than 1 nM. Turning to `CC[C@@H](C)[C@H](NC(=O)OC)C(=O)N1CC2(CC2)C[C@H]1c1nc2ccc(C#Cc3ccc(-c4cnc([C@@H]5CC6(CC6)CN5C(=O)[C@@H](NC(=O)OC)C(C)C)[nH]4)cc3)cc2[nH]1` [Example 656], the EC50 was less than 1 nM.

For `COC(=O)N[C@H](C(=O)N1CC2(CC2)C[C@H]1c1ncc(-c2ccc(C#Cc3ccc4nc([C@@H]5CC6(CC6)CN5C(=O)[C@H](NC(=O)OC)c5ccc(OC)cc5)[nH]c4c3)cc2)[nH]1)C(C)C` [Example 585], the EC50 was 1 to 10 nM.

Consider `COC(=O)N[C@H](C(=O)N1CC2(CC2)C[C@H]1c1nc2ccc(C#Cc3ccc(-c4cnc([C@@H]5CCCN5C(=O)[C@H](NC(=O)OC)c5cc(F)cc(F)c5)[nH]4)cc3)cc2[nH]1)C(C)C` (stereo in doubt) [Example 678], for which the EC50 was less than 1 nM. The same measure, in the same setting: the result for `COC(=O)N[C@H](C(=O)N1CC2(CC2)C[C@H]1c1ncc(-c2ccc(C#Cc3ccc4nc([C@@H]5CC6(CC6)CN5C(=O)[C@H](NC(=O)OC)c5cccc(Cl)c5)[nH]c4c3)cc2)[nH]1)C(C)C` [Example 584] reads less than 1 nM. On the same count and under the same terms, then `CC[C@H](C)[C@H](NC(=O)OC)C(=O)N1CCC[C@H]1c1ncc(-c2ccc(C#Cc3ccc4nc([C@@H]5CC6(CC6)CN5C(=O)[C@@H](NC(=O)OC)C(C)C)[nH]c4c3)cc2)[nH]1` [Example 673], with less than 1 nM. Still for that read-out and setting: the result for `COC(=O)N[C@H](C(=O)N1CC2(CC2)C[C@H]1c1ncc(-c2ccc(C#Cc3ccc4nc([C@@H]5CC6(CC6)CN5C(=O)[C@H](NC(=O)OC)c5ccccc5Cl)[nH]c4c3)cc2)[nH]1)C(C)C` [Example 651] reads less than 1 nM; that for `COC(=O)N[C@H](C(=O)N1CC2(CC2)C[C@H]1c1nc2ccc(C#Cc3ccc(-c4cnc([C@@H]5CCCN5C(=O)[C@H](NC(=O)OC)c5cccc(Cl)c5)[nH]4)cc3)cc2[nH]1)C(C)C` [Example 665], less than 1 nM; that for `COC(=O)N[C@H](C(=O)N1CC2(CC2)C[C@H]1c1ncc(-c2ccc(C#Cc3ccc4nc([C@@H]5CC6(CC6)CN5C(=O)[C@H](NC(=O)OC)c5cccnc5)[nH]c4c3)cc2)[nH]1)C(C)C` [Example 610], less than 1 nM.

Turning to `COC(=O)N[C@H](C(=O)N1CC2(CC2)C[C@H]1c1nc(-c2ccc(C#Cc3ccc4[nH]c([C@@H]5CC6(CC6)CN5C(=O)[C@@H](NC(=O)OC)C(C)C)nc4c3)cc2)c(F)[nH]1)C(C)C` [Example 660], the EC50 was less than 1 nM.
